{
  "source": "patent EP2402358A2",
  "about": "“2',3'-Didehydro-3'-deoxy-4'-ethynylothymidine derivatives for treatment infections caused by human immunodeficiency virus (HIV) multidrug resistant strains, method of their synthesis and pharmaceutically acceptable forms of drugs” (priority 2010, dated 2012)",
  "key": {"[1]": {"tested_on": "Wild type HIV-1 (NL4-3 cytotropic strain, CXCR4 - tropic)", "assay": "Determination of antiviral activity (beta-galactosidase reporter indicator cell line, deClPhR cell system), wild type virus", "assay_type": "cell-based", "settings": "Human immunodeficiency virus 1, NL43", "source_text": "(§1) Determination of antiviral activity"}, "[2]": {"tested_on": "HIV-1 virus strain Resistant 7005695", "settings": "Resistance factor Rf=EC50 mutant / EC50 wt virus", "source_text": "as §1\n(§2) Fully infectious virus HIV-1 was produced from cloned proviral DNA reference coding either for wild-type HIV-1 or from drug-resistant virus following transfection of proviral DNA into recipient mammalian cells. Subsequent to viral protein expression and particle formation, culture supernatant was harvested and used to infect an indicator cell line. This latter cell line expresses all necessary receptors and co-receptors for HIV infection as well as the bacterial gene LacZ coding for β-galactosidase under the control of the HIV-1 long terminal repeat. In this system, amount of β-galactosidase is directly proportional to the extent of viral replication. Activity of β-galactosidase is assayed in presence of a colorless substrate which upon enzymatic conversion yields a yellow product absorbing at 405 nm. Next, variation in colorimetric readout in presence of test compounds was translated in percent viral inhibition following normalization according to absorbance values of positive (presence of anti-HIV drug) and negative (untreated) control wells included in each 96 well-plate. […] Percent inhibition data in function of drug concentration were processed by a statistical curve fitting software yielding a modeled curve from which EC50 was extrapolated.\n(§3) Resistance factor Rf=EC50 mutant / EC50 wt virus"}, "[3]": {"tested_on": "HIV-1 virus strain Resistant QCR8", "settings": "Resistance factor Rf=EC50 mutant / EC50 wt virus", "source_text": "as §1, §2, §3"}, "[4]": {"assay": "Determination of cytotoxicity: Alamar Blue Cell Viability Assay", "assay_type": "cell-based", "settings": "deciphr cells", "source_text": "(§4) Determination of cytotoxicity: Alamar Blue™ Cell Viability Assay\n(§5) The Alamar Blue™ Cell Viability Assay (Invitrogen) is a fluorimetric metod for determining the number of viable cells. The Alamar Blue Reagent contains the cell permeable non-fluorescent blue dye resazurin, which is converted to the pink and fluorescent dye resorufin in response to the action of reductases located in the cytosol, mitochondria and endoplasmic reticulum. Therefore, only living cells will convert resazurin into resorufin. Assays are performed by adding 20 µL of the Alamar Blue Reagent directly to culture wells followed by a 6-hour incubation at 37°C. The fluorescent signal is monitored using 545 nm excitation wavelength and 590 nm emission wavelength. The quantity of resofurin product as measured by fluorescence is directly proportional to the number of living cells in culture, what allows to calculate CC50 value."}, "deClPhR™ cells": {"tested_on": "deClPhR™ cells", "assay": "Determination of cytotoxicity: Alamar Blue Cell Viability Assay", "assay_type": "cell-based", "settings": "Cytotoxicity; PNL4-3; deClPhR™ cells", "source_text": "as §4, §5"}},
  "note": "pEC50: −log10 of the molar value.",
  "data": [
    {"compound": "C#C[C@@]1(CO)C=C[C@H](n2cc(C)c(=O)[nH]c2=O)O1", "note": "[4'-E-d4T (WA32), 2',3'-didehydro-3'-deoxy-4'-ethynylothymidine]", "values": [
      {"measurement": "pEC50", "setting": "[1]", "value": 7.05},
      {"measurement": "Rf*", "setting": "[2]", "value": 17.3},
      {"measurement": "Rf*", "setting": "[3]", "value": 1.4},
      {"measurement": "CC50", "setting": "[4]; Cytotoxicity, PNL4-3, deClPhR™ cells", "value": "> 200000", "unit": "nM"}
    ]},
    {"compound": "C#C[C@@]1(COC(=O)CCCCCCCCCCCN=[N+]=[N-])C=C[C@H](n2cc(C)c(=O)[nH]c2=O)O1", "note": "[WA39, 1-(5-O-(12-azidododecanoyl)-2,3-dideoxy-2,3-didehydro-4-ethynyl-bb-D-ribofuranosyl)-thymine]", "values": [
      {"measurement": "pEC50", "setting": "[1]", "value": 7.14},
      {"measurement": "Rf*", "setting": "[2]", "value": 12.2},
      {"measurement": "Rf*", "setting": "[3]", "value": 0.8},
      {"measurement": "CC50", "setting": "[4]; cytotoxicity in deClPhR™ cells", "value": "> 200000", "unit": "nM"},
      {"measurement": "CC50", "setting": "deClPhR™ cells", "value": "> 200000", "unit": "nM"}
    ]},
    {"compound": "C#C[C@@]1(COC(=O)CCCCCCCCCCCOC)C=C[C@H](n2cc(C)c(=O)[nH]c2=O)O1", "note": "[WA40, 1-(2,3-dideoxy-2,3-didehydro-4-ethynyl-5-O-(12-methoxydodecanoyl)-bb-D -ribofuranosy)-thymine]", "values": [
      {"measurement": "pEC50", "setting": "[1]", "value": 7.32},
      {"measurement": "Rf*", "setting": "[2]", "value": 17.4},
      {"measurement": "Rf*", "setting": "[3]", "value": 2.3},
      {"measurement": "CC50", "setting": "[4]; cytotoxicity in deClPhR™ cells", "value": "> 200000", "unit": "nM"},
      {"measurement": "CC50", "setting": "deClPhR™ cells", "value": "> 200000", "unit": "nM"}
    ]},
    {"compound": "C#C[C@@]1(COC(=O)CCCCCCCCCCCCC)C=C[C@H](n2cc(C)c(=O)[nH]c2=O)O1", "note": "[WA37, 1-(2,3-dideoxy-2,3-didehydro-4-ethynyl-5-O-tetradodecanoyl-bb-D-ribofuranosyl)-thymine]", "values": [
      {"measurement": "pEC50", "setting": "[1]", "value": 7.27},
      {"measurement": "Rf*", "setting": "[2]", "value": 23.7},
      {"measurement": "Rf*", "setting": "[3]", "value": 1.3},
      {"measurement": "CC50", "setting": "[4]; cytotoxicity in deClPhR™ cells", "value": "> 200000", "unit": "nM"},
      {"measurement": "CC50", "setting": "deClPhR™ cells", "value": "> 200000", "unit": "nM"}
    ]},
    {"compound": "C#C[C@@]1(COC(=O)CCCCCCCCCCCBr)C=C[C@H](n2cc(C)c(=O)[nH]c2=O)O1", "note": "[WA38, 1-(5-O-(12-bromododecanoyl)-2,3-dideoxy-2,3-didehydro-4-ethynyl-bb-D-ribofuranosyl)-thymine]", "values": [
      {"measurement": "pEC50", "setting": "[1]", "value": 6.89},
      {"measurement": "Rf*", "setting": "[2]", "value": 10.4},
      {"measurement": "Rf*", "setting": "[3]", "value": 1},
      {"measurement": "CC50", "setting": "[4]; cytotoxicity in deClPhR™ cells", "value": "> 200000", "unit": "nM"},
      {"measurement": "CC50", "setting": "deClPhR™ cells", "value": "> 200000", "unit": "nM"}
    ]},
    {"compound": "C#C[C@@]1(COC(=O)CCCCCCCCCCSCC)C=C[C@H](n2cc(C)c(=O)[nH]c2=O)O1", "note": "[WA42]", "values": [
      {"measurement": "pEC50", "setting": "[1]", "value": 7.37},
      {"measurement": "Rf*", "setting": "[2]", "value": 16.1},
      {"measurement": "Rf*", "setting": "[3]", "value": 2.3},
      {"measurement": "CC50", "setting": "[4]; cytotoxicity in deClPhR™ cells", "value": "> 200000", "unit": "nM"},
      {"measurement": "CC50", "setting": "deClPhR™ cells", "value": "> 200000", "unit": "nM"}
    ]}
  ]
}
